Measurements from article PMC7059199, “Identification and structural insight of an effective PPARγ modulator with improved therapeutic index for anti-diabetic drug discovery” (Chemical Science, 2020).
Entries after “also recorded” stand apart in the source; their conditions may differ.

How the values were obtained:
3T3-L1 cells = assay: qPCR of adipogenic genes in 3T3-L1 cells; assay type: cell-based, mouse; conditions: 7 days after treatment
Description: Encouraged by the above results and to further determine whether VSP-77 activates PPARγ in 3T3-L1 cells, we evaluated the ability of VSP-77 to stimulate PPARγ activity by measuring the mRNA levels of endogenous PPARγ-regulated downstream genes linked to adipogenesis (primers are listed in Table S1 ^†).
Fig. 7 Expression of adipogenic genes in 3T3-L1 cells was analyzed by quantitative PCR (qPCR). Relative mRNA levels of the adipocyte differentiation genes PPARγ, aP2, CD36, LPL, C/EBPα and Fasn. mRNA was extracted from differentiating cells 7 days after treatment (n = 3, error bars = SEM). […]
(average±standard deviation calculated from three separate experiments). […]
Cells were stained with Oil Red O to estimate the lipid accumulation. The images were analyzed using ImageJ (National Institutes of Health).
For real-time PCR analysis, 1-2 μg total RNA was reverse-transcribed using the SuperScript cDNA Reverse Transcription Kit (Invitrogen) with SYBR Green PCR Master Mix (Invitrogen) and gene specific primers (Table S1) using a Roche Light Cycler 480 machine. The relative expression of mRNA was determined after normalization to β-actin level using the ΔΔ-Ct method. […]

[1] = biological target: hERG potassium ion channel (Homo sapiens, UniProt Q12809); assay: Inhibition assay on the hERG potassium ion channel
PPARα = biological target: T1, PPARα (Homo sapiens, UniProt Q07869); assay: Competitive TR-FRET assay, PPARα; conditions: even at 100 μM
T1 sequence (Q07869 1-468): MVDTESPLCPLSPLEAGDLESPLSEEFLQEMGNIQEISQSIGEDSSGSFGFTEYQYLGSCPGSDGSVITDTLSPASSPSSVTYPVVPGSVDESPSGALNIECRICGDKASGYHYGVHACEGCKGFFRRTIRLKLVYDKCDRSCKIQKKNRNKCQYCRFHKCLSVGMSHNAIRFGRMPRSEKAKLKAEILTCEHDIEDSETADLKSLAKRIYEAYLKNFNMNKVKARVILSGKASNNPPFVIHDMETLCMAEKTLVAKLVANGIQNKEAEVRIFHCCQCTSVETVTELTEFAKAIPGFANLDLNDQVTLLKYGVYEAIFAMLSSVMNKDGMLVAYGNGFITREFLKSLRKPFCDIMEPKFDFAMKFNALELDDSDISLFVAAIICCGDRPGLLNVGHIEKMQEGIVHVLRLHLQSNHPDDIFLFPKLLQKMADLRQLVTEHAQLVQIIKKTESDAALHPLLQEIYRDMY

[2] = Pharmacokinetic profile in mice; assay type: in vivo
Description: VSP-77 was further evaluated for its preliminary pharmacokinetic profile in mice following oral (10 mg kg^–1) and intravenous (5 mg kg^–1) administration (Table S2 ^†).

GST-PPARγ LBD = biological target: T2, GST-PPARγ LBD (Homo sapiens, UniProt P37231); assay: LanthaScreen TR-FRET competitive binding assay, PPARγ
T2 construct: 0.5 nM GST-PPARγ LBD was incubated with 5 nM Fluormone™; purchased Invitrogen
T2 sequence (P37231 238-503 limits assumed): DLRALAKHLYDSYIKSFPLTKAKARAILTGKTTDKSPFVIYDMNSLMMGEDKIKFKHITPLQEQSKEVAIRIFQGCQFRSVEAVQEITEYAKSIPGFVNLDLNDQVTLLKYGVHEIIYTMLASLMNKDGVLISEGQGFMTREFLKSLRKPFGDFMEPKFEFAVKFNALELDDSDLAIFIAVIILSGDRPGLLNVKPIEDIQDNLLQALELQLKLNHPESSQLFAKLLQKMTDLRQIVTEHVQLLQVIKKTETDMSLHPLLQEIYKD
Description: LanthaScreen™ TR-FRET assay (Invitrogen) was used for measuring the binding affinities of the ligands. 0.5 nM GST-PPARγ LBD was incubated with 5 nM Fluormone™ and Terbium-coated GST antibody.
Competitive TR -FRET binding assay
The GST PPARγ -LBD was labeled with a terbium-linked antibody and a fluorescent small molecule pan-PPAR ligand (Fluormone™ Pan-PPAR Green, Invitrogen) was used as a tracer that is displaced from the ligand binding domain upon agonist binding.
Excitation of the terbium at 340 nm results in FRET to the fluorescent tracer, with
Tracer displacment results is a loss of FRET signal between the terbium label and the fluorescent tracer.
The inhibition constant (ki) for a competitor was calculated by applying the
Cheng-Prusoff equation as following:
the tracer, [tracer] is the concentration of Fluormone™ Pan-PPAR Green used in the

HFD mice = assay: Anti-diabetic activity in high-fat diet (HFD) mice, 10 days; assay type: in vivo, C57BL/6J mice
[3] = mouse, in vivo, intravenous 5 mg/kg
[4] = mouse, in vivo, oral (ig) 10 mg/kg
[5] = oral 10 mg/kg, unit as printed in main text

Sequence of hERG potassium ion channel (Q12809 whole entry): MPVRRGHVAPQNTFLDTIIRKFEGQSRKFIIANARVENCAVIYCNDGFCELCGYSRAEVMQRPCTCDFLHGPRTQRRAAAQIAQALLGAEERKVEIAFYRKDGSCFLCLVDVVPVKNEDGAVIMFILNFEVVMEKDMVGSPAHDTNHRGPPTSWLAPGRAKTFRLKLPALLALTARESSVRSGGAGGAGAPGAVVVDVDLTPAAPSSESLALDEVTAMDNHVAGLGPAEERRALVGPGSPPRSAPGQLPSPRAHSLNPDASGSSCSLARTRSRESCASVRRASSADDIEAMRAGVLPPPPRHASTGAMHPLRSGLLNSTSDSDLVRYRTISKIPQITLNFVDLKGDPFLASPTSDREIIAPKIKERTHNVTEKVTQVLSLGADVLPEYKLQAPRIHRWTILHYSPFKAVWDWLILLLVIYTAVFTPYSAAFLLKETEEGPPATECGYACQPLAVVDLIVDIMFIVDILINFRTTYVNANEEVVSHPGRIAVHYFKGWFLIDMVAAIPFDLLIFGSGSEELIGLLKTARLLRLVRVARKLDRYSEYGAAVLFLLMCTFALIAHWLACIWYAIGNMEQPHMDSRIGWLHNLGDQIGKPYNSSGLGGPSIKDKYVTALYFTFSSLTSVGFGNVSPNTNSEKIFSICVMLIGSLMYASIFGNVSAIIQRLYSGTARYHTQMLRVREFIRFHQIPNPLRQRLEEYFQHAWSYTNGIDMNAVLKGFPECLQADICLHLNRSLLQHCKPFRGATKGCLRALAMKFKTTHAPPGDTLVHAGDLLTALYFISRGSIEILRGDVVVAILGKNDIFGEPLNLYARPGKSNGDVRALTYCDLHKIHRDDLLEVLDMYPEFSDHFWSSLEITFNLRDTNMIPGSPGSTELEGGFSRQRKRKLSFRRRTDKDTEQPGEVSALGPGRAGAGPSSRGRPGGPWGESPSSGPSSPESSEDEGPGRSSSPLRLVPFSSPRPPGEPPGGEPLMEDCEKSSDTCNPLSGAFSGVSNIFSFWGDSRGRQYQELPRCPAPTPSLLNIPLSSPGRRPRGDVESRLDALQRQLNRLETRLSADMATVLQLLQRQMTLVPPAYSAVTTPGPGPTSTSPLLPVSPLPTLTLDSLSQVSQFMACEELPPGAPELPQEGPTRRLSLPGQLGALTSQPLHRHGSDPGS

**Q.** Which results are given for `CCCCCCCC(OCC(=O)O)c1ccc(Cl)cc1` (stereo not shown) [VSP-77]?
**A.** expression of adipogenic genes PPARγ, aP2, CD36, LPL, C/EBPα and Fasn (mRNA) (3T3-L1 cells): only weakly stimulated; IC50 [1]: > 50 µM; hERG inhibition (in words) ([1]; even at 50 μM): no obvious inhibition; also recorded: no detectable hERG inhibition; effect on PPARα (in words) (PPARα): no obvious effects; AUC(0-inf) [2, 3]: 5030 ng·h/mL; AUC(0-t) [2, 3]: 5000 ng·h/mL; MRT [2, 3]: 1.11 h; half-life [2, 3]: 1.07 h; AUC(0-inf) [2, 4]: 5880 ng·h/mL; AUC(0-t) [2, 4]: 5770 ng·h/mL; Cmax [2, 4]: 2920 ng/mL; MRT [2, 4]: 1.94 h; Tmax [2, 4]: 0.5 h; half-life [2, 4]: 1.25 h; bioavailability ([2]; mouse, in vivo, oral (ig) 10 mg/kg vs iv 5 mg/kg, read-out: F (oral bioavailability)): 57.7%; AUC0–t [2, 5]: 5772 ng mL^–1 h^–1; AUC0–∞ [2, 5]: 5877 ng mL^–1 h^–1; binding to PPARγ (in words) (GST-PPARγ LBD; at 10 μM): potent binding affinity; Ki (GST-PPARγ LBD; competition of Fluormone (5 nM), 0.5 nM GST-PPARγ LBD): 4.8 µM; binding affinity for PPARγ relative to DA (GST-PPARγ LBD; higher than DA): about 10 fold; expression of key adipogenesis-related genes in adipose tissue (HFD mice): does not induce; Cdk5-mediated phosphorylation of PPARγ at Ser-273 in adipose tissue (HFD mice; 5 mg/kg i.p.): decrease; body weight and food intake compared to vehicle-treated mice (HFD mice; 5 mg/kg i.p.): without significant differences; expression of glut4 and adiponectin in adipose tissue (HFD mice; 5 mg/kg i.p.): selectively induced; fasting insulin levels (HFD mice; 5 mg/kg i.p.): significant reduction; glucose levels (HFD mice; 5 mg/kg i.p.): lowered; insulin resistance (HOMA-IR) (HFD mice; 5 mg/kg i.p.): clear and dose-dependent improvement; organ / fat weight (HFD mice; 5 mg/kg i.p.): selectively decreased subcutaneous and perirenal fats
